Experimental data taken from patent US9834565B2, “Tricyclic heterocycles as bet protein inhibitors” (Incyte Corporation, priority 2014, dated 2017).

Tests used:
BRD4-BD2 = BRD4-BD2 (Homo sapiens (Human), UniProt O60885); test: BRD4-BD2 AlphaScreen assay; format: binding; settings: H4Ac4 peptide, read-out: BRD4 BD-2 enzyme IC50
Procedure: (§1) BRD4-BD1 and BRD4-BD2 assays were conducted in white 384-well polystyrene plate in a final volume of 20 μL for BD1 and 40 μL for BD2. Inhibitors were first serially diluted in DMSO and added to the plate wells before the addition of other reaction components. […] After plate sealing, the plate was incubated in the dark at room temperature for 75 min. before reading on a PHERAstar FS plate reader (BMG Labtech). IC50 determination was performed by fitting the curve of percent control activity versus the log of the inhibitor concentration using the GraphPad Prism 5.0 software.

BRD4-BD1 = BRD4-BD1 (Homo sapiens (Human), UniProt O60885); test: BRD4-BD1 AlphaScreen assay; format: binding; settings: H4Ac4 peptide, read-out: BRD4 BD-1 enzyme IC50
Procedure: as §1

CC(=O)N1C[C@@H](C)N(c2nc3ccc(-c4c(C)noc4C)c4c3n2[C@@H](c2ccccn2)CO4)[C@@H](C)C1 (atropisomer, axis not shown) [Example 2, (4S)-2-[(2R,6S)-4-Acetyl-2,6-dimethylpiperazin-1-yl]-7-(3,5-dimethylisoxazol-4-yl)-4-pyridin-2-yl-4,5-dihydroimidazo[1,5,4-de][1,4]benzoxazine] showed an IC50 (BRD4-BD2) of less than 25 nM and an IC50 (BRD4-BD1) of less than 25 nM.
For Cc1noc(C)c1-c1ccc2nc(N3CCN(C(=O)C(C)C)CC3)n3c2c1OC[C@@H]3c1ccccn1 [Example 1, (4S)-7-(3,5-Dimethylisoxazol-4-yl)-2-(4-isobutyrylpiperazin-1-yl)-4-pyridin-2-yl-4,5-dihydroimidazo[1,5,4-de][1,4]benzoxazine], the IC50 (BRD4-BD2) was less than 25 nM and the IC50 (BRD4-BD1) was less than 25 nM.
Compound CC(=O)N1CCN(c2nc3ccc(-c4c(C)noc4C)c4c3n2[C@@H](c2ccccn2)CO4)[C@@H](C)C1 [Example 3, (4S)-2-[(2S)-4-acetyl-2-methylpiperazin-1-yl]-7-(3,5-dimethylisoxazol-4-yl)-4-pyridin-2-yl-4,5-dihydroimidazo[1,5,4-de][1,4] benzoxazine] has an IC50 (BRD4-BD2) of less than 25 nM and an IC50 (BRD4-BD1) of 25 to 100 nM.
For CC(=O)N1CC2CC1CN2c1nc2ccc(-c3c(C)noc3C)c3c2n1[C@@H](c1ccccn1)CO3 (stereo partly drawn) [Example 4, (4S)-2-(5-acetyl-2,5-diazabicyclo[2.2.1]hept-2-yl)-7-(3,5-dimethylisoxazol-4-yl)-4-pyridin-2-yl-4,5-dihydroimidazo[1,5,4-de][1,4]benzoxazine], the IC50 (BRD4-BD2) was less than 25 nM and the IC50 (BRD4-BD1) was less than 25 nM.
CC(=O)NC1(C)CCN(c2nc3ccc(-c4c(C)noc4C)c4c3n2[C@@H](c2ccccn2)CO4)CC1 [Example 5, N-{1-[(4S)-7-(3,5-dimethylisoxazol-4-yl)-4-pyridin-2-yl-4,5-dihydroimidazo[1,5,4-de][1,4]benzoxazin-2-yl]-4-methylpiperidin-4-yl}acetamide] gave an IC50 (BRD4-BD2) of less than 25 nM and an IC50 (BRD4-BD1) of 25 to 100 nM.
CCC(=O)N1CCN(c2nc3ccc(-c4c(C)noc4C)c4c3n2[C@@H](c2ccccn2)CO4)C[C@@H]1C [Example 8, (4S)-7-(3,5-dimethylisoxazol-4-yl)-2-[(3S)-3-methyl-4-propionylpiperazin-1-yl]-4-pyridin-2-yl-4,5-dihydroimidazo[1,5,4-de][1,4]benzoxazine] was tested, and the IC50 (BRD4-BD2) was less than 25 nM and the IC50 (BRD4-BD1) was less than 25 nM.
Compound Cc1noc(C)c1-c1ccc2nc(N3CCN(C(=O)C(C)C)[C@@H](C)C3)n3c2c1OC[C@@H]3c1ccccn1 [Example 9, (4S)-7-(3,5-dimethylisoxazol-4-yl)-2-[(3S)-4-isobutyryl-3-methylpiperazin-1-yl]-4-pyridin-2-yl-4,5-dihydroimidazo[1,5,4-de][1,4]benzoxazine] has an IC50 (BRD4-BD2) of less than 25 nM and an IC50 (BRD4-BD1) of less than 25 nM.
CCCC(=O)NC1CCN(c2nc3ccc(-c4c(C)noc4C)c4c3n2[C@@H](c2ccccn2)CO4)CC1 [Example 10, N-{1-[(4S)-7-(3,5-dimethylisoxazol-4-yl)-4-pyridin-2-yl-4,5-dihydroimidazo[1,5,4-de][1,4]benzoxazin-2-yl]piperidin-4-yl}butanamide] gave an IC50 (BRD4-BD2) of less than 25 nM and an IC50 (BRD4-BD1) of less than 25 nM.
For Cc1noc(C)c1-c1ccc2nc(N3CCC(NC(=O)C(C)(C)C)CC3)n3c2c1OC[C@@H]3c1ccccn1 [Example 11, N-{1-[(4S)-7-(3,5-dimethylisoxazol-4-yl)-4-pyridin-2-yl-4,5-dihydroimidazo[1,5,4-de][1,4]benzoxazin-2-yl]piperidin-4-yl}-2,2-dimethylpropanamide], the IC50 (BRD4-BD2) was less than 25 nM and the IC50 (BRD4-BD1) was less than 25 nM.
Work on Cc1noc(C)c1-c1ccc2nc(N3CCC(NC(=O)C4CCC4)CC3)n3c2c1OC[C@@H]3c1ccccn1 [Example 13, N-{1-[(4S)-7-(3,5-dimethylisoxazol-4-yl)-4-pyridin-2-yl-4,5-dihydroimidazo[1,5,4-de][1,4]benzoxazin-2-yl]piperidin-4-yl}cyclobutanecarboxamide] yielded an IC50 (BRD4-BD2) of less than 25 nM and an IC50 (BRD4-BD1) of less than 25 nM.
CCC(=O)N(C)C1CCN(c2nc3ccc(-c4c(C)noc4C)c4c3n2[C@@H](c2ccccn2)CO4)CC1 [Example 15, N-{1-[(4S)-7-(3,5-dimethylisoxazol-4-yl)-4-pyridin-2-yl-4,5-dihydroimidazo[1,5,4-de][1,4]benzoxazin-2-yl]piperidin-4-yl}-N-methylpropanamide] showed an IC50 (BRD4-BD2) of less than 25 nM and an IC50 (BRD4-BD1) of less than 25 nM.
CCCC(=O)N(C)C1CCN(c2nc3ccc(-c4c(C)noc4C)c4c3n2[C@@H](c2ccccn2)CO4)CC1 [Example 16, N-{1-[(4S)-7-(3,5-dimethylisoxazol-4-yl)-4-pyridin-2-yl-4,5-dihydroimidazo[1,5,4-de][1,4]benzoxazin-2-yl]piperidin-4-yl}-N-methylbutanamide] showed an IC50 (BRD4-BD2) of less than 25 nM and an IC50 (BRD4-BD1) of less than 25 nM.
Cc1noc(C)c1-c1ccc2nc(N3CCC(N(C)C(=O)C(C)C)CC3)n3c2c1OC[C@@H]3c1ccccn1 [Example 17, N-{1-[(4S)-7-(3,5-dimethylisoxazol-4-yl)-4-pyridin-2-yl-4,5-dihydroimidazo[1,5,4-de][1,4]benzoxazin-2-yl]piperidin-4-yl}-N,2-dimethylpropanamide] showed an IC50 (BRD4-BD2) of less than 25 nM and an IC50 (BRD4-BD1) of less than 25 nM.
Cc1noc(C)c1-c1ccc2nc(N3CCC(N(C)C(=O)C(C)(C)C)CC3)n3c2c1OC[C@@H]3c1ccccn1 [Example 18, N-{1-[(4S)-7-(3,5-dimethylisoxazol-4-yl)-4-pyridin-2-yl-4,5-dihydroimidazo[1,5,4-de][1,4]benzoxazin-2-yl]piperidin-4-yl}-N,2,2-trimethylpropanamide] was tested, and the IC50 (BRD4-BD2) was less than 25 nM and the IC50 (BRD4-BD1) was less than 25 nM.
Compound Cc1noc(C)c1-c1ccc2nc(N3CCC(N(C)C(=O)C4CC4)CC3)n3c2c1OC[C@@H]3c1ccccn1 [Example 19, N-{1-[(4S)-7-(3,5-dimethylisoxazol-4-yl)-4-pyridin-2-yl-4,5-dihydroimidazo[1,5,4-de][1,4]benzoxazin-2-yl]piperidin-4-yl}-N-methylcyclopropanecarboxamide] has an IC50 (BRD4-BD2) of less than 25 nM and an IC50 (BRD4-BD1) of less than 25 nM.
Cc1noc(C)c1-c1ccc2nc(N3CCC(N(C)C(=O)C4CCC4)CC3)n3c2c1OC[C@@H]3c1ccccn1 [Example 20, N-{1-[(4S)-7-(3,5-dimethylisoxazol-4-yl)-4-pyridin-2-yl-4,5-dihydroimidazo[1,5,4-de][1,4]benzoxazin-2-yl]piperidin-4-yl}-N-methylcyclobutanecarboxamide] gave an IC50 (BRD4-BD2) of less than 25 nM and an IC50 (BRD4-BD1) of less than 25 nM.
In the case of CCS(=O)(=O)N(C)C1CCN(c2nc3ccc(-c4c(C)noc4C)c4c3n2[C@@H](c2ccccn2)CO4)CC1 [Example 23, N-{1-[(4S)-7-(3,5-dimethylisoxazol-4-yl)-4-pyridin-2-yl-4,5-dihydroimidazo[1,5,4-de][1,4]benzoxazin-2-yl]piperidin-4-yl}-N-methylethanesulfonamide], the IC50 (BRD4-BD2) is reported as less than 25 nM and the IC50 (BRD4-BD1) is reported as less than 25 nM.
In the case of Cc1noc(C)c1-c1ccc2nc(N3CCC(N(C)S(=O)(=O)C4CC4)CC3)n3c2c1OC[C@@H]3c1ccccn1 [Example 24, N-{1-[(4S)-7-(3,5-dimethylisoxazol-4-yl)-4-pyridin-2-yl-4,5-dihydroimidazo[1,5,4-de][1,4]benzoxazin-2-yl]piperidin-4-yl}-N-methylcyclopropanesulfonamide], the IC50 (BRD4-BD2) is reported as less than 25 nM and the IC50 (BRD4-BD1) is reported as less than 25 nM.
With CCCC(=O)N1CCN(c2nc3ccc(-c4c(C)noc4C)c4c3n2[C@@H](c2ccccn2)CO4)CC1 [Example 25, (4S)-2-(4-butyrylpiperazin-1-yl)-7-(3,5-dimethylisoxazol-4-yl)-4-pyridin-2-yl-4,5-dihydroimidazo[1,5,4-de][1,4]benzoxazine] the IC50 (BRD4-BD2) was less than 25 nM and the IC50 (BRD4-BD1) was less than 25 nM.
Compound Cc1noc(C)c1-c1ccc2nc(N3CCN(C(=O)C(C)(C)C)CC3)n3c2c1OC[C@@H]3c1ccccn1 [Example 26, (4S)-7-(3,5-dimethylisoxazol-4-yl)-2-[4-(2,2-dimethylpropanoyl)piperazin-1-yl]-4-pyridin-2-yl-4,5-dihydroimidazo[1,5,4-de][1,4]benzoxazine] has an IC50 (BRD4-BD2) of less than 25 nM and an IC50 (BRD4-BD1) of less than 25 nM.
Compound Cc1noc(C)c1-c1ccc2nc(N3CCN(C(=O)C4CCC4)CC3)n3c2c1OC[C@@H]3c1ccccn1 [Example 28, (4S)-2-[4-(cyclobutylcarbonyl)piperazin-1-yl]-7-(3,5-dimethylisoxazol-4-yl)-4-pyridin-2-yl-4,5-dihydroimidazo[1,5,4-de][1,4]benzoxazine] has an IC50 (BRD4-BD2) of less than 25 nM and an IC50 (BRD4-BD1) of less than 25 nM.
With COCC(=O)N1CCN(c2nc3ccc(-c4c(C)noc4C)c4c3n2[C@@H](c2ccccn2)CO4)CC1 [Example 29, (4S)-7-(3,5-dimethylisoxazol-4-yl)-2-[4-(methoxyacetyl)piperazin-1-yl]-4-pyridin-2-yl-4,5-dihydroimidazo[1,5,4-de][1,4]benzoxazine] the IC50 (BRD4-BD2) was less than 25 nM and the IC50 (BRD4-BD1) was less than 25 nM.
